Laboratory results as given in US9796985B2, “Compositions and method for modulating the sensitivity of plants to cytokinin” (Trustees of Dartmouth College, priority 2013, dated 2017).
Where a SMILES comes first, the peptide text is derived from it. The star is where a group is joined. Cbz = O=C(OCc1ccccc1)*

Legend:
proteasome = assay: Role of the proteasome in ARR stability, immunoblot of protoplasts; type: cell-based, Arabidopsis; settings: 10 μM MG132, 3 hours
ARR7 and ARR15 = settings: wild-type plants, one hour treatment with 100 nM t-zeatin, qRT-PCR
Procedure: (§1) Cytokinin Growth and Molecular Response Analyses. Hypocotyl and root growth analyses were performed according to known methods (Argyros, et al. (2008) Plant Cell 20(8):2102-2116) and hypocotyl and root lengths were measured using ImageJ software (version 1.32; National Institutes of Health). Root meristem size was determined via established methods (Perilli & Sabatini (2010) Methods Mol. Biol. 655:177-187). The apical meristem was visualized by bright field microscopy, with tissue sectioning, fixation, and staining performed according to known methods (Chiang, et al. (2012) Plant Physiol. 160(1):332-348). Total RNA isolation, cDNA production, and quantitative RT-PCR (qRT-PCR) were performed via established methods (Argyros, et al. (2008) supra). Transcript abundances were calculated using the comparative CT method, with 13-TUB3 (At5g62700) as the normalized control.
(§2) Plant Growth Conditions and Cytokinin Treatment. Seeds were surface-sterilized and cold-treated for 3 days in the dark at 4° C. to ensure uniform germination before being moved into the light. For molecular and physiological assays, seedlings were grown on medium containing 1× Murashige and Skoog (MS) salts with vitamins (Research Products International Corp.), 1% sucrose, and 0.8% phytoagar (Research Products International Corp.) at 22° C. under continuous white light (50 μE·m^−2·s^−1) unless specified otherwise. […]

[1] = system: dark-grown, wild-type seedlings; settings: increasing concentrations of t-zeatin
Procedure: as §1, §2

Row | Structure (SMILES) | protein level of ARR1 (proteasome; protoplasts from ARR1-HA overexpression line) | protein level of ARR12 (proteasome; protoplasts from ARR12-Myc overexpression line) | induction of ARR7 and ARR15 expression (ARR7 and ARR15) | hypocotyl elongation [1]
1 | CC(C)C[C@@H](C=O)NC(=O)[C@H](CC(C)C)NC(=O)[C@H](CC(C)C)NC(=O)OCc1ccccc1 [MG132] (Cbz-Leu-Leu-Leu-aldehyde) | increased | increased |  | 
2 | C/C(=C\CNc1ncnc2[nH]cnc12)CO [t-zeatin, 6-(4-hydroxy-3methylbut-trans-2-enylamino) purine] |  |  | two- to four-fold | inhibition of hypocotyl elongation
